Test results from paper PMC13095408, “DBeQ derivative targets vacuolar protein sorting 4 functions in cancer cells and suppresses tumor growth in mice” (The Journal of Pharmacology and Experimental Therapeutics, 2025).

Key:
[1] = tested on: GFP-CHMP4B-expressing U2OS cells; experiment: GFP-CHMP4B accumulation cell-based assay (high-content microscopy)
Experimental: Plates were then scanned using the 20× objective for 1 hour with ≥100 cells/well across 6 fields/well. […] For all other assays, the cells were cultured overnight in black glass-bottom 96-well plates (Cellvis; P96-1.5H-N) then stained, rinsed, and treated with SM containing the indicated compounds (0.1% DMSO or 0.1% DMSO/0.1% ethanol [vehicle] final). Plates were scanned using the 20× NA .70 objective at the indicated intervals with ≥ 300 cells/well across 3 fields/well. […]

VPS4B = biological target: T1, VPS4B (Homo sapiens, UniProt O75351); experiment: VPS4B ATPase activity, EnzChek Phosphate assay; type: biochemical; set-up: His tag (pET28a vector-encoded) (N); made in house; host or cells: Escherichia coli BL21(DE3)
T1 sequence (O75351 1-444): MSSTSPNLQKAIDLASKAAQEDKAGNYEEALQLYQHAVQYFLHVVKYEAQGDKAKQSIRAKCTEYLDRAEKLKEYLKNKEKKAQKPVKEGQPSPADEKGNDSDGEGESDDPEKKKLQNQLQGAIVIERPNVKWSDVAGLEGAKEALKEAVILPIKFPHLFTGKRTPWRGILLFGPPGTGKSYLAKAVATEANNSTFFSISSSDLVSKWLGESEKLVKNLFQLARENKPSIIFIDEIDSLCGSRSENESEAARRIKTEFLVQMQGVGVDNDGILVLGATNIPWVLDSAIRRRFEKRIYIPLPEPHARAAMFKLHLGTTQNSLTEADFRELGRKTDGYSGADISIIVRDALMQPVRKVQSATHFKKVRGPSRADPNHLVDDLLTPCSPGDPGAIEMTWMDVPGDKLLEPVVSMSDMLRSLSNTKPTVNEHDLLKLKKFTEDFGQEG
Experimental: VPS4B and VCP ATPase activities were measured using the EnzChek Phosphate assay for the quantification of released phosphate. Assay buffers were based on literature precedents ([Cupido et al, 2019], [2021]) as follows: VPS4B buffer (20 mM HEPES-KOH, pH 7.4, 25 mM KOAc, 2 mM MgCl2, 5 mM (NH4)2SO4, 0.5 mM CaCl2, 2.5 mM DTT, 0.1 mg/mL BSA, 0.005% v/v Triton X-100), VCP buffer (20 mM HEPES-NaOH, pH 7.4, 20 mM NaCl, 10 mM MgCl2, 5 mM (NH4)2SO4, 0.5 mM CaCl2, 2.5 mM DTT, 0.1 mg/mL BSA, 0.005% v/v Triton X-100). In black clear-bottom 384-well plates, 22.5 μL of 5% DMSO or 40× test compounds diluted in the respective assay buffer was added to each well. ATPases were diluted to 1 μM in the respective buffers containing 2× EnzChek Phosphate assay coupling reagents of 400 μM MESG and 2 U of PNP, then 25 μL was added to each well. Plates were mixed at 1000 rpm for 30 minutes at RT while being protected from light. The reaction was initiated by adding 2.5 μL of 20 mM MgATP or water followed by mixing at 1200 rpm for 30 seconds at RT. Plates were measured at 360 nm using a CLARIOstar plate reader (BMG LABTECH) for 20 minutes at 37 °C. ATPase activity was calculated as the amount of phosphate released over a 5-minute interval under linear initial velocity conditions. The remaining ATPase activity was calculated by normalizing compound-treated activity values to the DMSO control. IC50 was calculated by fitting normalized values to a sigmoidal dose-response curve with Hill slope = −1 using Graph Pad Prism 10.0.
To identify VPS4i, we developed enzyme- and cell-based VPS4 functional assays to serve as VPS4i-screening platforms. For the enzyme-based assay, we used the colorimetric EnzChek Phosphate assay that detects free phosphate with the advantage of continuous measurement of ATP hydrolysis over time. […] Due to the high sequence and structural similarity of AAA-ATPases, we also established a VCP ATPase assay to evaluate hit selectivity. […] For the cell-based assay, our approach was based on how VPS4 inhibition causes the accumulation of ESCRT-III ([Babst et al, 1998]; [Katoh et al, 2003]). We used an N-terminal GFP-tagged CHMP4B reporter system because it is the most abundant ESCRT-III subunit ([Katoh et al, 2004]; [Teis et al, 2008]). Our aim was to test compounds under short-term serum and amino acid starvation to stimulate ESCRT activity for easier detection of inhibitors ([Takahashi et al, 2018], [2019]). […] Overall, we established 2 systems for VPS4i screening, a VPS4B ATPase activity assay and a GFP-CHMP4B accumulation cell-based assay.

[2] = screened at 1 µM, mean ± S.D., Supplemental Table 2
[3] = screened at 5 µM, mean ± S.D., Supplemental Table 2
[4] = screened at 1 μM, starvation media, 1 hour, foci intensity per cell normalized to 4-107, mean ± SD, Table 1
[5] = remaining ATPase activity, screened at 5 μM, mean ± SD, Table 1

Structure (SMILES) | VPS4B ATPase (% DMSO) (VPS4B; [3]) | VPS4B ATPase (% DMSO) (VPS4B; [5]) | GFP-CHMP4B (% 4-107) [1, 2] [% 4-107] | GFP-CHMP4B (% 4-107) [1, 4] [% 4-107]
COc1ncnc2c1ccn2-c1nc(NCCc2cccnc2)c2cccc(OC)c2n1 [Compound 5-65] | 89.36 ± 2.84 |  | 1.69 ± 0.46 | 
COc1cccc2c(NCc3ccccc3)nc(Nc3ccc4scnc4c3)nc12 [Compound 5-67] | 51.60 ± 0.35 |  | 1.60 ± 0.33 | 
COc1cccc2c(NCc3ccccc3)nc(Nc3ccc4ncsc4c3)nc12 [Compound 5-69] | 51.27 ± 1.54 |  | 2.10 ± 1.22 | 
COc1cccc2c(NCCc3ccccc3)nc(N[C@@H](C)c3ccccc3)nc12 [Compound 5-83] | 42.92 ± 3.93 |  | 1.83 ± 1.02 | 
COc1cccc2c(NCc3ccccc3)nc(N[C@H](C)c3ccccc3)nc12 [Compound 5-89] | 46.68 ± 2.80 |  | 9.13 ± 2.82 | 
COc1cccc2c(NCc3ccccc3)nc(N[C@@H](C)c3ccc4ccccc4c3)nc12 [Compound 5-93] | 58.00 ± 2.01 |  | 5.34 ± 4.29 | 
COc1cccc2c(NCCc3ccccc3)nc(N[C@H](C)c3ccc4ccccc4c3)nc12 [Compound 5-99] | 45.77 ± 2.14 |  | 3.40 ± 1.02 | 
COc1cccc2c(NCc3ccccc3)nc(N[C@@H](C)c3cccc4ccccc34)nc12 [Compound 5-101] | 49.27 ± 0.19 |  | 2.43 ± 1.02 | 
COc1cccc2c(NCc3ccccc3)nc(NCc3nc4ccccc4s3)nc12 [Compound 5-105] | 56.25 ± 2.23 |  | 1.30 ± 1.20 | 
COC(=O)c1cccc2c1ccn2-c1nc(NCc2ccccc2)c2cccc(OC)c2n1 [Compound 5-135] | 86.66 ± 2.70 |  | 4.63 ± 2.05 | 
COc1cccc2c(NCc3ccccc3)nc(-n3ccc4c(C(N)=O)cccc43)nc12 [Compound 5-139] | 90.05 ± 5.58 |  | 1.75 ± 0.11 | 
O=[N+]([O-])c1cccc2c(NCc3ccccc3)nc(NCc3ccccc3)nc12 [Compound 5] | 86.38 ± 2.37 | 86.38 ± 2.37 | 15.05 ± 0.55 | 15.05 ± 0.55
COc1cccc2c(NCc3ccccc3)nc(NCc3cccc(OC(F)(F)F)c3)nc12 [Compound 7-11] | 46.29 ± 0.61 |  | 22.15 ± 1.19 | 
COc1cccc2c(NCc3ccccc3)nc(NC(c3ccc(F)cc3)c3ccc(F)cc3)nc12 [Compound 7-13] | 39.86 ± 1.36 |  | 12.60 ± 1.04 | 
COc1ccc2nc(NCc3ccccc3)nc(NCc3ccccc3)c2c1 [Compound 7] | 43.86 ± 1.20 | 43.86 ± 1.20 | 8.92 ± 2.87 | 8.92 ± 2.87
COC(=O)c1ccc2ccn(-c3nc(NCc4ccccc4)c4cccc(OC)c4n3)c2c1 [Compound 8] | 82.10 ± 2.19 | 82.10 ± 2.19 | 1.38 ± 0.73 | 1.38 ± 0.73
COc1cccc2c(NCc3ccccc3)nc(NCc3ccc4ccccc4c3)nc12 [Compound 12] | 30.39 ± 0.43 | 30.39 ± 0.43 | 10.42 ± 6.42 | 10.42 ± 6.42
COC(=O)c1cccc(CNc2nc(NCc3ccccc3)c3cccc(OC)c3n2)c1 [Compound 14] | 42.10 ± 0.26 | 42.10 ± 0.26 | 13.39 ± 9.03 | 13.39 ± 9.03

More lines, main results first:

VPS4B ATPase (% DMSO) (VPS4B; [3]) | VPS4B ATPase (% DMSO) (VPS4B; [5]) | Structure (SMILES) | GFP-CHMP4B (% 4-107) [1, 2] [% 4-107] | GFP-CHMP4B (% 4-107) [1, 4] [% 4-107]
41.71 ± 2.35 |  | COc1cccc2c(NCCc3ccccc3)nc(NCc3ccccc3)nc12 [Compound 5-73] | 5.34 ± 1.17 | 
45.53 ± 1.40 |  | COc1cccc2c(NCc3ccccc3)nc(NCCc3ccccc3)nc12 [Compound 5-75] | 2.25 ± 1.07 | 
76.35 ± 3.47 |  | COc1cccc2c(NCc3ccccc3)nc(Nc3ccc4ccccc4c3)nc12.Cl [Compound 5-79] | 3.40 ± 0.70 | 
43.91 ± 0.05 |  | COc1cccc2c(NCc3ccccc3)nc(N[C@@H](C)c3ccccc3)nc12 [Compound 5-81] | 7.65 ± 7.10 | 
40.44 ± 0.01 |  | COc1cccc2c(NCCc3ccccc3)nc(N[C@H](C)c3ccccc3)nc12 [Compound 5-91] | 1.69 ± 0.12 | 
42.87 ± 1.98 |  | COc1cccc2c(NCc3ccccc3)nc(N[C@H](C)c3ccc4ccccc4c3)nc12 [Compound 5-95] | 2.43 ± 1.04 | 
49.73 ± 0.04 |  | COc1cccc2c(NCCc3ccccc3)nc(N[C@@H](C)c3ccc4ccccc4c3)nc12 [Compound 5-97] | 1.82 ± 0.02 | 
45.60 ± 2.79 |  | COc1cccc2c(NCc3ccccc3)nc(N[C@H](C)c3cccc4ccccc34)nc12 [Compound 5-103] | 4.36 ± 1.56 | 
75.99 ± 2.63 |  | COc1cccc2c(NCCc3ccccc3)nc(NCc3nc4ccccc4s3)nc12 [Compound 5-107] | 0.24 ± 0.08 | 
53.27 ± 1.65 |  | COc1ccc2cccc(Nc3nc(NCc4ccccc4)c4cccc(OC)c4n3)c2c1 [Compound 5-119] | 2.49 ± 0.70 | 
63.24 ± 0.19 |  | COc1cccc2c(NCc3ccccc3)nc(Nc3cccc4cc5ccccc5cc34)nc12 [Compound 5-129] | 1.25 ± 0.86 | 
96.09 ± 2.11 |  | COc1cccc2c(NCc3ccccc3)nc(-n3ccc4c(C(=O)O)cccc43)nc12 [Compound 5-137] | 2.21 ± 0.41 | 
37.77 ± 2.37 |  | COc1cccc2c(NCc3ccccc3)nc(NC(c3ccccc3)c3ccccc3)nc12 [Compound 7-23] | 23.20 ± 6.42 | 
49.12 ± 2.89 | 49.12 ± 2.89 | COc1cccc2c(NCc3ccccc3)nc(-c3cccc4ccccc34)nc12 [Compound 10] | 3.97 ± 0.16 | 3.97 ± 0.16
